Molecular target: T1, human GPR120 (Homo sapiens, UniProt Q5NUL3)
T1 construct: Flag (DYKDDDDK) (N); host or cells: HEK293 cells co-expressing Gqi5
T1 sequence (Q5NUL3 1-361): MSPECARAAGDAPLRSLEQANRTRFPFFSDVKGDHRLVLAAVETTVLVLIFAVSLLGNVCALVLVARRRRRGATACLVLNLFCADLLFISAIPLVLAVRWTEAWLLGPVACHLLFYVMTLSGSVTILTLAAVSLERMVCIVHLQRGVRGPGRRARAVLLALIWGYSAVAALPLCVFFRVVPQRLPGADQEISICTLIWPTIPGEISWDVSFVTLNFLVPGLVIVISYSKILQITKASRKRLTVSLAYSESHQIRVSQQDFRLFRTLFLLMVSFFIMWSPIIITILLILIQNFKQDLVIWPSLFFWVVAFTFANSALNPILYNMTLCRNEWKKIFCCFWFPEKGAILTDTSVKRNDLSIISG
Assay: Intracellular Ca2+ assay (FLIPR Calcium 4, Flexstation) in human GPR120 stable cell line
Type: cell-based
Details: % activity at 2.5 μM compared to the maximal activity of the compound of Example 25 at 2.5 μM; HEK293 cells co-expressing Gqi5
Procedure, shortened: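 HEK293 cells co-expressing Gqi5 and stably expressing Flag-tagged human GPR120 were seeded at 70,000 cells per well in poly-D-lysine coated 96 well plates and loaded with FLIPR Calcium 4 dye for 50 minutes at 37° C. On a Flexstation, compound-induced fluorescence (excitation 485 nm, emission 525) was recorded for 90 seconds. Percent activity was expressed against a reference agonist's maximal activity at 2.5 μM, set as 100%.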

SMILES | % Activity (Ex. 25 Reference Compound)
CC1(C)Cc2cc(F)cc(COc3ccc(CCC(=O)O)c4c3CCCC4)c2O1 [Example 218, 3-(4-((5-fluoro-2,2-dimethyl-2,3-dihydrobenzofuran-7-yl)methoxy)-5,6,7,8-tetrahydronaphthalen-1-yl)propanoic acid] | 114.48%
CC1(C)Cc2cc(F)cc(COc3c(F)cc(CC4CC4C(=O)O)cc3F)c2O1 (single isomer, unassigned) [Example 184B, 2-(3,5-difluoro-4-((5-fluoro-2,2-dimethyl-2,3-dihydrobenzofuran-7-yl)methoxy)benzyl)cyclopropanecarboxylic acid] | 130.66%
CC(Cc1ccc(OCc2cc(Cl)cc3c2OC(C)(C)C3O)cc1)C(=O)O (stereo not shown) [Example 130, 3-(4-((5-chloro-3-hydroxy-2,2-dimethyl-2,3-dihydrobenzofuran-7-yl)methoxy)phenyl)-2-methylpropanoic acid] | 103.85%
CC1(C)Cc2cc(Cl)cc(COc3ccc(SCC(=O)O)cc3)c2O1 [Example 59, 2-((4-((5-chloro-2,2-dimethyl-2,3-dihydrobenzofuran-7-yl)methoxy)phenyl)thio)-acetic acid] | 117.58%
CC(=O)Nc1cc(COc2ccc(CC(C)C(=O)O)cc2)c2c(c1)CC(C)(C)O2 (stereo not shown) [Example 123, 3-(4-((5-acetamido-2,2-dimethyl-2,3-dihydrobenzofuran-7-yl)methoxy)phenyl)-2-methylpropanoic acid] | 47.01%
CC1(C)Cc2cc(Cl)cc(COc3ccc(C(C)(C)CC(=O)O)cc3)c2O1 [Example 156, 3-(4-((5-chloro-2,2-dimethyl-2,3-dihydrobenzofuran-7-yl)methoxy)phenyl)-3-methylbutanoic acid] | 148.87%
CC1(C)Cc2cc(F)cc(COc3ccc4c(c3)CC[C@H]4CC(=O)O)c2O1 [Example 175, (S)-2-(5-((5-fluoro-2,2-dimethyl-2,3-dihydrobenzofuran-7-yl)methoxy)-2,3-dihydro-1H-inden-1-yl)acetic acid] | 152.44%
[2H]C1([2H])c2cc(F)cc(COc3ccc(CC(C)C(=O)O)cc3)c2OC1(C)C (stereo not shown) [Example 145, 3-(4-((3,3-dideuterio-5-fluoro-2,2-dimethyl-2,3-dihydrobenzofuran-7-yl)methoxy)phenyl)-2-methylpropanoic acid] | 143.69%
Cc1cc(OCC(=O)O)ccc1OCc1cc(Cl)cc2c1OC(C)(C)C2 [Example 103, 2-(4-((5-chloro-2,2-dimethyl-2,3-dihydrobenzofuran-7-yl)methoxy)-3-methylphenoxy)acetic acid] | 98.96%
CC(Cc1ccc(OCc2ccc(F)c3c2CC(C)(C)O3)cc1)C(=O)O (stereo not shown) [Example 91, 3-(4-((7-fluoro-2,2-dimethyl-2,3-dihydrobenzofuran-4-yl)methoxy)phenyl)-2-methylpropanoic acid] | 121.29%
CC1(C)Cc2cc(Cl)cc(CNc3ccc(CCC(=O)O)cc3)c2O1 [Example 127] | 152.93%
Cc1cc2cccc(COc3ccc4c(c3)CCC4CC(=O)O)c2s1 (stereo not drawn) [Example 152, 2-(5-((2-methylbenzo[α]thiophen-7-yl)methoxy)-2,3-dihydro-1H-inden-1-yl)acetic acid] | 83.81%
COc1cc(OCc2cc(Cl)cc3c2OC2(CCCC2)C3)ccc1CCC(=O)O [Example 194, 3-(4-((5-chloro-3H-spiro[benzofuran-2,1′-cyclopentane]-7-yl)methoxy)-2-methoxyphenyl)propanoic acid] | 148.21%
CC(Cc1ccc(OCc2cc(Cl)cc3c2OC(C)(C)C3)c(CN(C)C)c1)C(=O)O (stereo not shown) [Example 88, 3-(4-((5-chloro-2,2-dimethyl-2,3-dihydrobenzofuran-7-yl)methoxy)-3-((dimethylamino)methyl)phenyl)-2-methylpropanoic acid] | 118.92%
CC(Cc1cc(F)c(OCc2c(F)c(F)cc3c2OC(C)(C)C3)c(F)c1)C(=O)O (stereo not shown) [Example 42, 3-(4-((5,6-difluoro-2,2-dimethyl-2,3-dihydrobenzofuran-7-yl)methoxy)-3,5-difluorophenyl)-2-methylpropanoic acid] | 140.94%
CC(Cc1cc(F)c(OCc2cc(Cl)cc3c2OC(C)C3(C)C)c(F)c1)C(=O)O (stereo not shown) [Example 109, 3-(4-((5-chloro-2,3,3-trimethyl-2,3-dihydrobenzofuran-7-yl)methoxy)-3,5-difluorophenyl)-2-methylpropanoic acid] | 72.36%
CC1(C)Cc2cc(F)cc(COc3cc(Cl)c(CCC(=O)O)c(Cl)c3)c2O1 [Example 197, 3-(2,6-dichloro-4-((5-fluoro-2,2-dimethyl-2,3-dihydrobenzofuran-7-yl)methoxy)phenyl)propanoic acid] | 151.44%
CC1(C)Cc2cc(F)cc(COc3c(F)cc(CC4CC4C(=O)O)cc3F)c2O1 (single isomer, unassigned) [Example 184A, 2-(3,5-difluoro-4-((5-fluoro-2,2-dimethyl-2,3-dihydrobenzofuran-7-yl)methoxy)benzyl)cyclopropanecarboxylic acid] | 95.58%
Cc1c(CCC(=O)O)ccc(OCc2cc(Cl)cc3c2OC(C)(C)C3)c1C [Example 209, 3-(4-((5-chloro-2,2-dimethyl-2,3-dihydrobenzofuran-7-yl)methoxy)-2,3-dimethylphenyl)propanoic acid] | 142.22%
CC(Cc1ccc(OCc2cc(Cl)cc3c2OC(C)(C)C3O)c(F)c1)C(=O)O (stereo not shown) [Example 80, 3-(4-((5-chloro-3-hydroxy-2,2-dimethyl-2,3-dihydrobenzofuran-7-yl)methoxy)-3-fluorophenyl)-2-methylpropanoic acid] | 86.25%
[2H]C1([2H])c2cc(Cl)cc(COc3ccc(CC(C)C(=O)O)cc3F)c2OC1(C)C (stereo not shown) [Example 146, 3-(4-((3,3-dideuterio-5-chloro-2,2-dimethyl-2,3-dihydrobenzofuran-7-yl)methoxy)-3-fluorophenyl)-2-methylpropanoic acid] | 140.72%
CCOC(Cc1cc(F)c(OCc2cc(F)cc3c2OC(C)(C)C3)c(F)c1)C(=O)O (stereo not shown) [Example 69, 3-(3,5-difluoro-4-((5-fluoro-2,2-dimethyl-2,3-dihydrobenzofuran-7-yl)methoxy)phenyl)-2-ethoxypropanoic acid] | 78.46%

Same assay, conditions: human GPR120 stably expressing cells, eight concentrations from 0.00001 to 20 μM

SMILES | EC50
CC1(C)Cc2cc(Cl)cc(COc3ccc(SCC(=O)O)cc3)c2O1 [Example 59, 2-((4-((5-chloro-2,2-dimethyl-2,3-dihydrobenzofuran-7-yl)methoxy)phenyl)thio)-acetic acid] | 1 to 10 µM
CC1(C)Cc2cc(F)cc(COc3ccc(CCC(=O)O)c(F)c3)c2O1 [Example 48, 3-(2-fluoro-4-((5-fluoro-2,2-dimethyl-2,3-dihydrobenzofuran-7-yl)methoxy)phenyl)propanoic acid] | 1 to 10 µM
CC(Cc1ccc(OCc2ccc(F)c3c2CC(C)(C)O3)cc1)C(=O)O (stereo not shown) [Example 91, 3-(4-((7-fluoro-2,2-dimethyl-2,3-dihydrobenzofuran-4-yl)methoxy)phenyl)-2-methylpropanoic acid] | 1 to 10 µM
COc1cc(CCC(=O)O)c(Br)cc1OCc1cc(Cl)cc2c1OC(C)(C)C2 [Example 57, 3-(2-bromo-4-((5-chloro-2,2-dimethyl-2,3-dihydrobenzofuran-7-yl)methoxy)-5-methoxyphenyl)propanoic acid] | 1 to 10 µM
CC1(C)Cc2cc(F)cc(COc3ccc(CCC(=O)O)c(C(F)(F)F)c3)c2O1 [Example 61, 3-(4-((5-fluoro-2,2-dimethyl-2,3-dihydrobenzofuran-7-yl)methoxy)-2-(trifluoromethyl)phenyl)propanoic acid] | 1 to 10 µM
CC(Cc1ccc(OCc2cc(Cl)cc3c2OC(C)(C)C3)c(CN(C)C)c1)C(=O)O (stereo not shown) [Example 88, 3-(4-((5-chloro-2,2-dimethyl-2,3-dihydrobenzofuran-7-yl)methoxy)-3-((dimethylamino)methyl)phenyl)-2-methylpropanoic acid] | 1 to 10 µM
